A word on the IC50: it is the point on the concentration scale where inhibition reaches its midpoint.

Drawing on patent publication US20170050980A1, “OXADIAZINE COMPOUNDS AND METHODS OF USE THEREOF” (FORUM Pharmaceuticals Inc., priority 2015, published 2017), this text covers IC50 for 23 molecules.

The subject of this assay is Aβ42. The assay is described as follows: In vitro cell screening assay; quantification of Aβ (1-42) peptide by sandwich ELISA. Format: cell-based. Particulars: Human neuroglioma H4 cells stably expressing human wild type APP751; compounds 0.003-10 μM, incubated overnight (16-18 h); Aβ42 in supernatant by sandwich ELISA; normalized to DMSO and DAPT; read-out: Aβ42 H4 Prot Fre IC50. The protocol: Human neuroglioma H4 cells were transfected with a pcDNA3.1 plasmid expressing human wild type APP751 cDNA and a stable cell line was generated using G418 selection. Cells were plated at 15,000 cells/well in Costar 96-well plates and placed at 37° C. and 5% CO2. Six hours after plating, cells were washed three times with Pro293™ chemically defined medium, followed by addition of compounds (0.003-10 μM, final DMSO concentration of 0.33%). Plates were incubated overnight (16-18 h) and supernatant was removed for quantification of Aβ peptides by sandwich ELISA. Cytotoxicity was evaluated using Cell-Titer 96W AQueous One Solution Cell Proliferation Assay according to the manufacturer's protocol.
Aβ peptide levels were quantified by sandwich ELISA. 96-well plates were coated with C-terminal specific Aβ antibodies recognizing either Aβ37, Aβ38, Aβ40, Aβ42, Aβ43 or a N-terminal specific Aβ antibody to detect Aβ 1-x. Plates were then blocked overnight at 4° C. with 1% bovine serum albumin (BSA) in PBS-T. Plates were washed and 100 μl of cultured cell supernatant or synthetic Aβ peptide standards and a detection antibody (4G8-HRP) were applied to the blocked plate and incubated overnight at 4° C. The next day, wells were washed before the addition of detection substrate (TMB peroxidase). Plates were then read for absorbance at 450 nm on a Molecular Devices SpectraMax M5e Microplate Reader.
Compound-treated samples were normalized to samples treated with DMSO alone (no inhibition) and to samples treated with DAPT. IC50 values were calculated from values reported as percent of DMSO controls using nonlinear regression, based on a sigmoidal dose—response (variable slope) model. […] used for calculation.

Structures are written as SMILES.

In the case of `COc1nc(C2=NOCC3CN(c4ccc(Cl)cc4C(F)(F)F)CCN23)ccc1-n1cnc(C)c1` (single isomer, unassigned) [Example 36A, 8-(4-chloro-2-(trifluoromethyl)phenyl)-4-(6-methoxy-5-(4-methyl-1H-imidazol-1-yl)pyridin-2-yl)-1,6,7,8,9,9a-hexahydropyrazino [1,2-d] [1,2, 4] oxadiazine], the IC50 was found to be 0.064 µM.
As to `COc1nc(C2=NOCC3CN(c4ccc(Cl)cc4C(F)(F)F)CCN23)ccc1-n1cnc(C)c1` (single isomer, unassigned) [Example 36B, 8-(4-chloro-2-(trifluoromethyl)phenyl)-4-(6-methoxy-5-(4-methyl-1H-imidazol-1-yl)pyridin-2-yl)-1,6,7,8,9,9a-hexahydropyrazino [1,2-d] [1,2,4] oxadiazine], the IC50 is 0.307 µM.
Under `COc1nc(C2=NOC(C)C(c3cccc(Cl)c3)N2)ccc1-n1cnc(C)c1` (single isomer, unassigned) [Example 41A, 5-(3-chlorophenyl)-3-(6-methoxy-5-(4-methyl-1H-imidazol-1-yl)pyridin-2-yl)-6-methyl-5,6-dihydro-4H-1,2,4-oxadiazine] stands 1.43 µM; under `COc1nc(C2=NOC(C)C(c3cccc(Cl)c3)N2)ccc1-n1cnc(C)c1` (single isomer, unassigned) [Example 41B, 5-(3-chlorophenyl)-3-(6-methoxy-5-(4-methyl-1H-imidazol-1-yl)pyridin-2-yl)-6-methyl-5,6-dihydro-4H-1,2,4-oxadiazine], 0.0142 µM.
With `COc1nc(C2=NOC(C)C(c3cc4ccc(Cl)cc4o3)N2)ccc1-n1cnc(C)c1` (single isomer, unassigned) [Example 46A, 5-(6-chlorobenzofuran-2-yl)-3-(6-methoxy-5-(4-methyl-1H-imidazol-1-yl)pyridin-2-yl)-6-methyl-5,6-dihydro-4H-1,2,4-oxadiazine], the IC50 is 0.225 µM.
With `COc1nc(C2=NOC(C)C(c3cc4ccc(Cl)cc4o3)N2)ccc1-n1cnc(C)c1` (single isomer, unassigned) [Example 46B, 5-(6-chlorobenzofuran-2-yl)-3-(6-methoxy-5-(4-methyl-1H-imidazol-1-yl)pyridin-2-yl)-6-methyl-5,6-dihydro-4H-1,2,4-oxadiazine], the IC50 was 0.0051 µM.
Under `COc1nc(C2=NOC(C)C(c3cc4ccc(Cl)cc4o3)N2)ccc1-n1cnc(C)c1` (single isomer, unassigned) [Example 46C, 5-(6-chlorobenzofuran-2-yl)-3-(6-methoxy-5-(4-methyl-1H-imidazol-1-yl)pyridin-2-yl)-6-methyl-5,6-dihydro-4H-1,2,4-oxadiazine] stands 0.291 µM.
For `COc1nc(C2=NOC(C)C(c3cc4ccc(Cl)cc4o3)N2)ccc1-n1cnc(C)c1` (single isomer, unassigned) [Example 46D, 5-(6-chlorobenzofuran-2-yl)-3-(6-methoxy-5-(4-methyl-1H-imidazol-1-yl)pyridin-2-yl)-6-methyl-5,6-dihydro-4H-1,2,4-oxadiazine], the IC50 worked out at 0.0028 µM.
Next, `COc1nc(C2=NOC(C)C(c3cn(C)c4ncc(C(F)(F)F)cc34)N2)ccc1-n1cnc(C)c1` (single isomer, unassigned; (+)) [44B or 45B, (+)-3-(6-methoxy-5-(4-methyl-1H-imidazol-1-yl)pyridin-2-yl)-6-methyl-5-(1-methyl-5-(trifluoromethyl)-1H-pyrrolo[2,3-b]pyridin-3-yl)-5,6-dihydro-4H-1,2,4-oxadiazine]: 0.0082 µM; `COc1nc(C2=NOC(C)C(c3cn(C)c4ncc(C(F)(F)F)cc34)N2)ccc1-n1cnc(C)c1` (single isomer, unassigned; (+)) [44D or 45D, (+)-3-(6-methoxy-5-(4-methyl-1H-imidazol-1-yl)pyridin-2-yl)-6-methyl-5-(1-methyl-5-(trifluoromethyl)-1H-pyrrolo[2,3-b]pyridin-3-yl)-5,6-dihydro-4H-1,2,4-oxadiazine]: 0.0043 µM.
Under `COc1nc(C2=NOC(C)C(c3cn(C)c4cc(F)c(Cl)cc34)N2)ccc1-n1cnc(C)c1` (single isomer, unassigned; (+)) [Example 21B, (+)-5-(5-chloro-6-fluoro-1-methyl-1H-indol-3-yl)-3-(6-methoxy-5-(4-methyl-1H-imidazol-1-yl)pyridin-2-yl)-6-methyl-5,6-dihydro-4H-1,2,4-oxadiazine] stands 0.003 µM.
As to `COc1nc(C2=NOC(C)C(c3cn(C)c4cc(F)c(Cl)cc34)N2)ccc1-n1cnc(C)c1` (single isomer, unassigned; (+)) [Example 21D, (+)-5-(5-chloro-6-fluoro-1-methyl-1H-indol-3-yl)-3-(6-methoxy-5-(4-methyl-1H-imidazol-1-yl)pyridin-2-yl)-6-methyl-5,6-dihydro-4H-1,2,4-oxadiazine], the IC50 is 0.002 µM.
Next, `COc1nc(C2=NOC(C)(C)C(c3ccccc3)N2)ccc1-n1cnc(C)c1` (single isomer, unassigned; (+)) [Example 22B, (+)-3-[6-methoxy-5-(4-methyl-1H-imidazol-1-yl)pyridin-2-yl]-6,6-dimethyl-5-phenyl-5,6-dihydro-4H-1,2,4-oxadiazine]: 0.075 µM.
In the case of `COc1nc(C2=NOC(C)(C)C(c3ccc(Cl)cc3)N2)ccc1-n1cnc(C)c1` (single isomer, unassigned; (+)) [Example 23B, (+)-5-(4-chlorophenyl)-3-[6-methoxy-5-(4-methyl-1H-imidazol-1-yl)pyridin-2-yl]-6,6-dimethyl-5,6-dihydro-4H-1,2,4-oxadiazine], the IC50 amounted to 0.023 µM.
Under `COc1nc(C2=NOC3(CC3)C(c3ccc(Cl)cc3)N2)ccc1-n1cnc(C)c1` (single isomer, unassigned; (+)) [Example 25B, (+)-8-(4-chlorophenyl)-6-[6-methoxy-5-(4-methyl-1H-imidazol-1-yl)pyridin-2-yl]-4-oxa-5,7-diazaspiro[2.5]oct-5-ene] stands 0.026 µM; under `COc1nc(C2=NOCC(C)(c3cn(C)c4ccccc34)N2)ccc1-n1cnc(C)c1` (single isomer, unassigned; (+)) [Example 26A, (+)-3-[3-[6-methoxy-5-(4-methyl-1H-imidazol-1-yl)pyridin-2-yl]-5-methyl-5,6-dihydro-4H-1,2,4-oxadiazin-5-yl]-1-methyl-1H-indole], 0.048 µM.
Under `COc1nc(C2=NOCC(c3c4n(c5ccc(Cl)cc35)CCOC4)N2)ccc1-n1cnc(C)c1` (single isomer, unassigned; (+)) [Example 28A, (+)-8-chloro-10-(3-(6-methoxy-5-(4-methyl-1H-imidazol-1-yl)pyridin-2-yl)-5,6-dihydro-4H-1,2,4-oxadiazin-5-yl)-3,4-dihydro-1H-[1,4]oxazino[4,3-a]indole] stands 0.0053 µM.
Next, `COc1nc(C2=NOCC(c3cn(C)c4ccc(C5CCOCC5)cc34)N2)ccc1-n1cnc(C)c1` (single isomer, unassigned; (+)) [Example 29B, (+)-3-(6-methoxy-5-(4-methyl-1H-imidazol-1-yl)pyridin-2-yl)-5-(1-methyl-5-(tetrahydro-2H-pyran-4-yl)-1H-indol-3-yl)-5,6-dihydro-4H-1,2,4-oxadiazine]: 0.0205 µM; `COc1nc(C2=NOCC(c3c4n(c5ccccc35)CCOC4)N2)ccc1-n1cnc(C)c1` (single isomer, unassigned; (+)) [Example 30B, (+)-10-(3-(6-methoxy-5-(4-methyl-1H-imidazol-1-yl)pyridin-2-yl)-5,6-dihydro-4H-1,2,4-oxadiazin-5-yl)-3,4-dihydro-1H-[1,4]oxazino[4,3-a]indole]: 0.0169 µM; `COc1nc(C2=NOC(C)C(c3cn(C)c4cc(F)c(F)cc34)N2)ccc1-n1cnc(C)c1` (single isomer, unassigned; (+)) [Example 39A, (+)-5-(5,6-difluoro-1-methyl-1H-indol-3-yl)-3-(6-methoxy-5-(4-methyl-1H-imidazol-1-yl)pyridin-2-yl)-6-methyl-5,6-dihydro-4H-1,2,4-oxadiazine]: 0.0054 µM.
For `COc1nc(C2=NOC(C)C(c3cn(C)c4cc(F)c(F)cc34)N2)ccc1-n1cnc(C)c1` (single isomer, unassigned; (+)) [Example 39D, (+)-5-(5,6-difluoro-1-methyl-1H-indol-3-yl)-3-(6-methoxy-5-(4-methyl-1H-imidazol-1-yl)pyridin-2-yl)-6-methyl-5,6-dihydro-4H-1,2,4-oxadiazine], the IC50 is 0.0044 µM.
Under `COc1nc(C2=NOC(C)C(c3ccc(Cl)cc3)N2)ccc1-n1cnc(Cl)c1` (single isomer, unassigned; (+)) [Example 42B, (+)-3-(5-(4-chloro-1H-imidazol-1-yl)-6-methoxypyridin-2-yl)-5-(4-chlorophenyl)-6-methyl-5,6-dihydro-4H-1,2,4-oxadiazine] stands 0.0184 µM.
Under `COc1cc(C2=NOC(C)C(c3ccc(Cl)cc3)N2)ccc1-n1cnc(C)c1` (single isomer, unassigned; (+)) [Example 43B, (+)-5-(4-chlorophenyl)-3-(3-methoxy-4-(4-methyl-1H-imidazol-1-yl)phenyl)-6-methyl-5,6-dihydro-4H-1,2,4-oxadiazine] stands 0.0805 µM.
